{"source": "patent US11220534B2", "about": "“Treatment of neurological diseases” (Lancaster University Business Enterprises Limited, priority 2016, dated 2022)", "type_in_all_cases": "in vivo", "key": {"C57BL/6 mice given MPTP": {"test_system": "C57BL/6 mice given MPTP", "experiment": "Immunohistochemistry for TH in the substantia nigra pars compacta, MPTP Parkinson mouse model", "conditions": "10 nmol/kg i.p. once daily for 2 weeks, FIG. 4, N=6 per group", "from_the_text": "A standard model to induce Parkinson like symptoms in mice is the injection of the chemical (MPTP) (Li et al., 2009). This chemical impairs or kills neurons in the brain that produce dopamine. The mice develop motor impairments, and the dopaminergic neurons in the brain are reduced in numbers and function. The enzyme tyrosine hydroxylase (TH) is required to synthesise dopamine. A loss of TH signifies a loss of dopamine production (Harkavyi et al., 2008).\nAdult male C57BL/6 mice were given the dopaminergic toxin MPTP (20 mg/kg in 0.1 mL of PBS i.p. at 2-h intervals of 4 doses MPTP; Sigma) or vehicle (PBS) for one day. […]\nImmunohistochemistry for TH in the Substantia Nigra Pars Compacta and the Striatum Six animals per group were analysed for expression of tyrosine hydroxylase (TH), a marker for dopamine production. Coronal brain sections (20 μm) from striatum (bregma […]) and SNpc (bregma […]) were analysed by immunohistochemistry using antibodies recognising TH.\nSections were cut on a cryostat and postfixed in 4% paraformaldehyde, washed in PBS, treated with 0.3% H2O2 in methanol for 20 min, and washed again. […] For each animal, three tissue sections from one level of striatum were stained and analysed for TH-positive fibre innervation. […] Two tissue sections from each level were quantified by immunohistochemistry. […]"}, "APP/PS1 transgenic mice [1]": {"test_system": "APP/PS1 transgenic mice", "experiment": "Immunohistochemical measurement of beta-amyloid plaque load in the cortex of APP/PS1 transgenic mice", "from_the_text": "(§1) Animal models have been developed to test novel drugs. A standard model for Alzheimer's disease is transgenic mice that express human mutated genes for amyloid production that are known to induce Alzheimer's disease in humans. These APP/PS1 transgenic mice recapitulate some of the symptoms of Alzheimer's disease such as the aggregation of amyloid in the brain, memory loss and the loss of synapses (Radde et al., 2006).\n(§2) The APP/PS1 mice express human Swedish mutated APP and human mutated presenilin-1 which induce Alzheimer's Disease in humans.\n(§3) The dose of peptide tested was 10 nmol/kg body weight. The peptides were administered by a once-daily intraperitoneal injection for 8 weeks. Saline injections were administered as a control. Six animals per group were injected with a peptide or a saline control.\nAnimals (6 per group) were perfused transcardially with 30 ml of ice-cold PBS and 30 ml of ice-cold 4% paraformaldehyde to postfix the brain. The brains were removed and placed in fresh 30% sucrose solution in PBS to cryoprotect tissue and cut at a thickness of 40 μm on a cryostat. Sections were chosen according to stereological rules, with the first section taken at random and every 5th section afterwards. Between 7 and 13 sections were analysed per brain.\nImmunostaining techniques were used to assess the neuronal plaque load (anti beta-amyloid rabbit polyclonal antibody (1:200, rabbit polyclonal-Invitrogen 71-5800) and of synaptophysin (polyclonal rabbit anti-synaptophysin primary antibody, 1:2000, Abcam, Cambridge, UK) to measure the amount of synapses in the cortex. Brain samples were first exposed to 99% formic acid for 7 minutes and then washed 3 times for 10 minutes in TBS. Pre-treatment with 99% formic acid is known to drastically increase the detection of beta-Amyloid in formalin-fixed brain samples. Then samples were incubated in 0.3% H2O2 (Sigma Aldrich; Cat.-No.: 516813) in TBS for 30 minutes on the shaker to deplete endogenous peroxides activity, and were 3 times washed in TBS for 10 minutes afterwards.\nTo increase permeability of membranes in the brain tissue, samples were exposed to 0.3% Triton X-100 (Sigma Aldrich; Cat.-No.: 516813) in TBS for 10 minutes on the shaker. Unspecific proteinophilic binding in the tissue was saturated by incubating the samples with 5% goat serum (Gibco; Cat.-No.: 16210-064) in TBS for 30 minutes on the shaker.\nA primary antibody against beta-Amyloid or synaptophysin was added and incubated overnight on the shaker at 4° C. The antibody was polyclonal and raised against a synthetic beta-Amyloid 1-43 peptide in rabbit. The primary antibody was used in a final dilution of 1 to 250 in TBS containing 2% goat serum and […]. […]"}, "APP/PS1 transgenic mice [2]": {"test_system": "APP/PS1 transgenic mice", "experiment": "Immunohistochemical measurement of synaptic densities (synaptophysin) in the cortex of APP/PS1 transgenic mice", "conditions": "10 nmol/kg i.p. once daily for 8 weeks, FIG. 2, N=6 per group", "from_the_text": "as §1, §2, §3\nAnimals (6 per group) were perfused transcardially with 30 ml of ice-cold PBS and 30 ml of ice-cold 4% paraformaldehyde to postfix the brain. The brains were removed and placed in fresh 30% sucrose solution in PBS to cryoprotect tissue and cut at a thickness of 40 μm on a cryostat. Sections were chosen according to stereological rules, with the first section taken at random and every 5th section afterwards. Between 7 and 13 sections were analysed per brain. […]"}}, "note": "Where no end group is shown, it is not given here. [ ]: non-standard residue; d: D form. Aib = CC(C)(N)C(=O)O", "data": [{"substance": "YXEGTFTSDYSIYLDKQAAXEFVNWLLAGGPSSGAPPPSKRRQRRKKRGY-NH2 (Y[Aib]EGTFTSDYSIYLDKQAA[Aib]EFVNWLLAGGPSSGAPPPSKRRQRRKKRGY-NH2) [DA5, No. 12; X=aminoisobutyric acid]", "values": [{"measurement": "MPTP-induced reduction of TH in the substantia nigra, pars compacta (protection of dopaminergic neurons)", "setting": "C57BL/6 mice given MPTP", "value": "protected dopaminergic neurons at a greater rate than the single GIP and GLP-1 analogues"}, {"measurement": "beta-amyloid plaque load in the cortex (% area positive for beta amyloid in cross sections of the brain cortex)", "setting": "APP/PS1 transgenic mice [1]; 10 nmol/kg body weight, once-daily intraperitoneal injection for 8 weeks, FIG. 1, N=6 per group", "value": "reduces beta-amyloid plaque load"}, {"measurement": "beta-amyloid plaque load compared with the single GIP or GLP-1 analogues", "setting": "APP/PS1 transgenic mice [1]; 10 nmol/kg i.p. once daily for 8 weeks, FIG. 1", "value": "superior to the single GIP or GLP-1 analogues"}, {"measurement": "synapse loss / synaptic densities in the cortex", "setting": "APP/PS1 transgenic mice [2]", "value": "protected from synapse loss"}]}]}
